# Measured values as given in patent US20230331690A1, “THC DERIVATIVES, ORAL DOSAGE FORMS COMPRISING SAME, USES THEREOF FOR TREATING DISEASES AND DISORDERS AND SYNTHESIS THEREOF” (BAR-ILAN UNIVERSITY, priority 2020, published 2023).
# Several values for one entry are separate records, joined by “and”; a condition that tells them apart may be missing. Equal entries are not always repeated.
# Test system: hind paw of mice
# Assay: Electronic Von-Frey mechanical sensitivity (withdrawal thresholds) after Paclitaxel-induced neuropathic pain
# Type: in vivo
# Settings: for Withdrawal test, test 1 / Withdrawal test, test 4 / Withdrawal test, test 5 / Withdrawal test, test 6 / Withdrawal test, test 2 / Withdrawal test, test 3: per animal; for Withdrawal test, All group average: 8 mice; for Withdrawal test, Average: average per animal; for Withdrawal test, Change from b.l.: group average vs baseline; for Withdrawal test, test 6: additional test
# Method: Mechanical sensitivity was evaluated by measuring the changes in tactile sensitivity in the hind paw of mice, using an Electronic Von-Frey apparatus (EVF). Withdrawal thresholds were measured, using the EVF apparatus, first at baseline (time=0) and then following drug, in a few periods after administration, by applying an accurate force on specific areas of the skin and measuring the needed force for the mouse to lift its paw.
# Paclitaxel was utilized for the stimulation of a chemotherapy-induced neuropathic pain. Paclitaxel is anti-cancer chemotherapy drug classified as a “plant alkaloid” and an “antimicrotubule agent”.
# Mice were divided into three groups of 8 mice each, as follows: • (a) Group no. 1—Morphine as positive control; • (b) Group no. […] 3—synthetic THC derivative 9-Desmethyl THC.
# A portion of Paclitaxel was administered to each mouse by i.p. injection, on days 1, 3, 5 and 7 from the beginning of the experiment. At day 8, withdrawal thresholds were measured first at baseline (time=0), thereafter each mouse received a single portion of a drug substance, at 5 mg/Kg body weight concentration, by oral gavage and measurements took place.
# The first checking point was 1 hour after administration of each drug. For every mouse, its threshold for the pain perception in which it removes its hind paw after the stabbing of the Von-Frey hair has been checked. Needed force (in gram force units) was measured each time and was recorded for every checking. This test was repeated 5 times for each mouse consecutively.
# This procedure was repeated for all the three groups. The next checking point was 3 hours after administration, where the last withdrawal thresholds measurements were performed on the next morning, on day 9, which was 24 hours after administration.
# Morphine was utilized as a positive control where group no. 1 mice received morphine (dissolved in a saline solution (0.9%) and injected subcutaneously) as an analgesic agent, prior to the mechanical sensitivity tests.
# The tests described in this example are complicated and depend on numerous factors. Accordingly, results above 10.0 gram force (marked with an asterisk) were not included in the evaluation of the experimental data. In cases of exceptional results, an additional test was performed mouse (test 6) in order to assure the exceptional result.
# [1] = t = 1 h after 5 mg/Kg, * values excluded
# [2] = t = 3 h after 5 mg/Kg, * values excluded
# [3] = t = 24 h after 5 mg/Kg, * values excluded
compound,measurement,setting,value
"CCCCCc1cc(O)c2c(c1)OC(C)(C)[C@@H]1CCC=C[C@@H]21 [9-Desmethyl THC, 9-desmethyl-THC]",average decrease in the withdrawal thresholds,"1 h after 5 mg/Kg, vs baseline",10.2%
same,decrease compared to baseline in the withdrawal thresholds,3 h after 5 mg/Kg,12.1%
same,"Withdrawal test, test 1","t = 1 h after 5 mg/Kg single dose (oral gavage; morphine s.c.), * values >10.0 excluded from evaluation",4.0 gram force (2×) and 7.2 gram force and 5.1 gram force and 4.3 gram force and 4.9 gram force and 7.3 gram force and 5.3 gram force
same,"Withdrawal test, All group average",t = 1 h after 5 mg/Kg,5.55 gram force
same,"Withdrawal test, Average",t = 1 h after 5 mg/Kg,4.82 gram force and 5.82 gram force and 5.84 gram force and 6.20 gram force and 5.12 gram force and 5.18 gram force and 5.98 gram force and 5.42 gram force
same,"Withdrawal test, Change from b.l.",t = 1 h after 5 mg/Kg,−10.2%
same,"Withdrawal test, test 4",t = 1 h after 5 mg/Kg,5.3 gram force (2×) and 5.7 gram force and 4.0 gram force and 4.3 gram force (2×) and 5.4 gram force and 4.5 gram force
same,"Withdrawal test, test 5",t = 1 h after 5 mg/Kg,4.3 gram force and 6.8 gram force (2×) and 4.4 gram force and 7.4 gram force and 4.6 gram force and 4.1 gram force and 5.6 gram force
same,"Withdrawal test, test 6",t = 1 h after 5 mg/Kg,6.3 gram force and 5.3 gram force
same,"Withdrawal test, test 2",[1],6.1 gram force (2×) and 4.7 gram force and 9.8 gram force and 9.4 gram force and 6.7 gram force and 5.7 gram force and 4.0 gram force
same,"Withdrawal test, test 3",[1],4.4 gram force and 5.1 gram force and 4.2 gram force (2×) and 6.2 gram force and 5.7 gram force and 7.0 gram force and 7.7 gram force
same,"Withdrawal test, All group average",t = 3 h after 5 mg/Kg,5.43 gram force
same,"Withdrawal test, Average",t = 3 h after 5 mg/Kg,5.34 gram force and 5.02 gram force and 5.00 gram force and 5.62 gram force and 5.70 gram force (2×) and 5.22 gram force and 5.86 gram force
same,"Withdrawal test, Change from b.l.",t = 3 h after 5 mg/Kg,−12.1%
same,"Withdrawal test, test 2",t = 3 h after 5 mg/Kg,5.1 gram force and 4.6 gram force and 4.8 gram force (2×) and 8.6 gram force (2×) and 4.7 gram force and 5.5 gram force
same,"Withdrawal test, test 4",t = 3 h after 5 mg/Kg,4.1 gram force and 5.0 gram force and 5.4 gram force (2×) and 9.5 gram force and 4.9 gram force and 6.0 gram force and 4.2 gram force
same,"Withdrawal test, test 5",t = 3 h after 5 mg/Kg,4.7 gram force (2×) and 6.3 gram force and 4.2 gram force and 4.3 gram force and 6.5 gram force and 6.8 gram force and 7.0 gram force
same,"Withdrawal test, test 6",t = 3 h after 5 mg/Kg,4.4 gram force and 4.9 gram force (2×)
same,"Withdrawal test, test 1",[2],7.4 gram force and 5.0 gram force and 4.8 gram force and 4.3 gram force and 4.5 gram force and 4.6 gram force and 7.0 gram force and 6.8 gram force
same,"Withdrawal test, test 3",[2],5.4 gram force and 4.2 gram force and 5.8 gram force and 5.2 gram force and 4.0 gram force (3×) and 4.6 gram force
same,"Withdrawal test, All group average",t = 24 h after 5 mg/Kg,5.36 gram force
same,"Withdrawal test, Average",t = 24 h after 5 mg/Kg,6.58 gram force and 4.80 gram force and 5.28 gram force and 6.12 gram force and 4.96 gram force and 4.74 gram force and 5.16 gram force and 5.26 gram force
same,"Withdrawal test, Change from b.l.",t = 24 h after 5 mg/Kg,−13.3%
same,"Withdrawal test, test 1",t = 24 h after 5 mg/Kg,5.4 gram force and 5.0 gram force (2×) and 4.2 gram force (3×) and 7.0 gram force and 7.1 gram force
same,"Withdrawal test, test 2",t = 24 h after 5 mg/Kg,6.9 gram force and 4.1 gram force (3×) and 4.7 gram force and 5.6 gram force and 4.4 gram force and 4.5 gram force
same,"Withdrawal test, test 3",t = 24 h after 5 mg/Kg,8.8 gram force and 4.1 gram force (2×) and 4.7 gram force and 4.2 gram force and 4.0 gram force and 5.6 gram force and 6.1 gram force
same,"Withdrawal test, test 4",[3],4.4 gram force and 6.2 gram force and 8.1 gram force and 9.0 gram force and 5.0 gram force and 5.1 gram force and 7.6 gram force and 4.0 gram force
same,"Withdrawal test, test 5",[3],7.4 gram force and 4.6 gram force (2×) and *10.0 gram force and 5.8 gram force and 7.3 gram force and 4.0 gram force (2×)
